Assay [1] concerns HL-60 (human myeloid leukemia) cells. As to the kind of experiment: MTT cytotoxicity assay, HL-60. As to conditions: HL-60, MTT, 48 h, read-out: IC50 against HL-60. It is filed as cell-based. The protocol:
(§1) Compounds 1–10 were evaluated for their cytotoxic activities against five human cancer cell lines, HL-60 (human myeloid leukemia), SMMC-7721 (hepatocellular carcinoma), A549 (lung cancer), MCF-7 (breast cancer), and SW480 (colon cancer), and one human normal cell line BEAS-2B (human bronchial epithelial) by the MTT method. DDP (cis-platin) and taxol were used as positive controls.
(§2) Five human cancer cell lines, human myeloid leukemia HL-60, hepatocellular carcinoma SMMC-7721, lung cancer A549, breast cancer MCF-7, and colon cancer SW480 cells, together with one human normal cell line BEAS-2B (human bronchial epithelial), were assayed. Cells were cultured in RPMI-1640 or in DMEM medium (Hyclone, USA), supplemented with 10% fetal bovine serum (Hyclone, USA) in 5% CO2 at 37 °C. The antiproliferative assay was performed according to the MTT (3-(4,5-dimethylthiazol-2-yl)-2,5-diphenyl tetrazolium bromide) method in 96-well microplates, as reported previously, with slight modification. Briefly, 100 μL of adherent cells was seeded into each well of 96-well cell culture plates and allowed to adhere for 12 h before addition of test compounds, while suspended cells were seeded just before the addition of the drug with initial density of 1 × 10^5 cells/mL. Each cancer cell line was exposed to the tested compound at concentrations of 0.0625, 0.32, 1.6, 8, and 40 μM in triplicates for 48 h. Wells with DMSO were used as negative controls, and DDP (cis-platin, Sigma, USA) and taxol were used as a positive control. After compound treatment, cell viability was detected by a Bio-Rad 680 at λ = 595 nm and a cell growth curve was graphed. IC50 values were calculated by Reed and Muench’s method.
(Tetrazolium dyes change colour on reduction, which living cells bring about.)

Assay [2] concerns SMMC-7721 (hepatocellular carcinoma) cells. Kind of assay: MTT cytotoxicity assay, SMMC-7721. As to conditions: SMMC-7721, MTT, 48 h, read-out: IC50 against SMMC-7721. In kind it is cell-based, human. The protocol: as §1, §2
In assay [3] the test system is MCF-7 (breast cancer) cells. Kind of assay: MTT cytotoxicity assay, MCF-7. It is filed as cell-based, human. As to conditions: MCF-7, MTT, 48 h, read-out: IC50 against MCF-7. The protocol: as §1, §2
In assay [4] the test system is BEAS-2B (human bronchial epithelial) cells. As to the kind of experiment: MTT cytotoxicity assay, BEAS-2B normal cell line. As to conditions: BEAS-2B human normal cell line, 48 h, read-out: IC50 against BEAS-2B. It is filed as cell-based. The protocol: as §1, §2
In assay [5] the test system is SW480 (colon cancer) cells. Kind of assay: MTT cytotoxicity assay, SW480. It is filed as cell-based, human. As to conditions: 48 h, read-out: IC50 against SW480. The protocol:
as §1, §2

The next assay concerns A549 (lung cancer) cells. Kind of assay: MTT cytotoxicity assay, A549. In kind it is cell-based, human. As to conditions: A-549, MTT, 48 h, read-out: IC50 against A-549. The protocol: as §1, §2

pIC50: −log10 of the molar value. Where two headings read alike, the source gives them in different places.

The term pIC50 denotes the negative decadic logarithm of the IC50, by convention in mol/L.

Regarding `C=C(C)[C@@]12C[C@@H](C)[C@@]34OC5(CCCCCCC[C@@H](C)[C@H]6[C@H](C)[C@H](OC(=O)c7ccccc7)[C@@](O)([C@H](O)[C@@]7(CO)O[C@H]7[C@H]3[C@H]1O5)[C@@H]64)O2` [Compound 3, pimelea factor P3], the pIC50 in assay [1] (Homo sapiens) was 4.88; in assay [2] (Homo sapiens), 4.83; in assay [3] (Homo sapiens, MCF7), 4.85; in assay [4], 4.81; in assay [5] (Homo sapiens), 4.84; with A549 (lung cancer) cells (Homo sapiens, A549), 4.95.

Turning to `COc1cc([C@H]2OC[C@H]3[C@@H]2CO[C@H]3c2ccc(O)c(OC)c2)ccc1O` [Compound 6, (+)-epipioresinol], the pIC50 in assay [1] (Homo sapiens) is less than 4.40; in assay [2] (Homo sapiens), less than 4.40; in assay [3] (Homo sapiens, MCF7) it was less than 4.40; in assay [4], less than 4.40; in assay [5] (Homo sapiens) it was less than 4.40; in the assay with A549 (lung cancer) cells (Homo sapiens, A549) it was less than 4.40.

In the case of `CCCCC/C=C/C=C/C(=O)O[C@@H]1[C@@H](C)[C@@]2(O)[C@@H](C=C(CO)C[C@]3(O)C(=O)C(C)=C[C@@H]23)[C@@H]2C(C)(C)[C@]12OC(C)=O` [Compound 5, prostratin Q], the pIC50 in assay [1] (Homo sapiens) is 4.80; in assay [2] (Homo sapiens), 4.82; in assay [3] (Homo sapiens, MCF7), 4.83; in assay [4], 4.78; in assay [5] (Homo sapiens), 4.83; in the assay with A549 (lung cancer) cells (Homo sapiens, A549), 4.80.

For the molecule `N.N.[Cl][Pt][Cl]` [DDP ( cis-platin), cis-platin, reference compound], the pIC50 was 5.90 in assay [1]; 4.79 in assay [2]; 4.77 in assay [3]; 5.06 in assay [4]; 4.74 in assay [5]; 4.85 with A549 (lung cancer) cells.

For `CC(=O)O[C@@]12C[C@@H](C)[C@@]3(O)[C@@H](C=C(CO)C[C@]4(O)C(=O)C(C)=C[C@@H]34)[C@@H]1C2(C)C` [Compound 4, prostratin], the pIC50 in assay [1] (Homo sapiens) was 4.81; in assay [2] (Homo sapiens) it was 4.74; in assay [3] (Homo sapiens, MCF7), 4.80; in assay [4], 4.76; in assay [5] (Homo sapiens) it was 4.88; in the assay on A549 (lung cancer) cells (Homo sapiens, A549) it was 4.90.

In the case of `COc1ccc(C[C@@H]2COC(=O)[C@H]2Cc2ccc(OC)c(O)c2)cc1O` [Compound 10, prestegane B], the pIC50 in assay [1] (Homo sapiens) is less than 4.40; in assay [2] (Homo sapiens), less than 4.40; in assay [3] (Homo sapiens, MCF7), less than 4.40; in assay [4], less than 4.40; in assay [5] (Homo sapiens) it was less than 4.40; in the assay with A549 (lung cancer) cells (Homo sapiens, A549) it was less than 4.40.

As to `C=C(C)[C@]12C[C@@H](C)[C@@]34OC5(CCCCCCC[C@@H](C)[C@H]6[C@H](C)[C@H](O)[C@@](O)([C@H](O)[C@@]7(COC(=O)/C=C/c8ccccc8)O[C@H]7[C@H]3[C@H]1O5)[C@@H]64)O2` [Compound 1, wikstroelide Q], the pIC50 in assay [1] (Homo sapiens) is 4.58; in assay [2] (Homo sapiens), less than 4.40; in assay [3] (Homo sapiens, MCF7), less than 4.40; in assay [4], less than 4.40; in assay [5] (Homo sapiens), less than 4.40; with A549 (lung cancer) cells (Homo sapiens, A549), less than 4.40.

On to `COc1cc([C@H]2c3cc(O)c(OC)cc3C[C@@H](CO)[C@@H]2CO)ccc1O` [Compound 7, (+)-isolariciresinol], for which the pIC50 in assay [1] (Homo sapiens) was less than 4.40; in assay [2] (Homo sapiens), less than 4.40; in assay [3] (Homo sapiens, MCF7), less than 4.40; in assay [4] it was less than 4.40; in assay [5] (Homo sapiens), less than 4.40; with A549 (lung cancer) cells (Homo sapiens, A549), less than 4.40.

`COc1cc(C[C@@H]2CO[C@@H](c3ccc(O)c(OC)c3)[C@@H]2CO)ccc1O` [Compound 8, (−)-lariciresinol]: the pIC50 is less than 4.40 in assay [1] (Homo sapiens); less than 4.40 in assay [2] (Homo sapiens); less than 4.40 in assay [3] (Homo sapiens, MCF7); less than 4.40 in assay [4]; less than 4.40 in assay [5] (Homo sapiens); less than 4.40 with A549 (lung cancer) cells (Homo sapiens, A549).

With `C=C(C)[C@]12C[C@@H](C)[C@@]34OC5(CCCCCCC[C@H](C)[C@H]6[C@H](C)[C@H](OC(=O)c7ccccc7)[C@@](O)([C@H](O)[C@@]7(CO)O[C@H]7[C@H]3[C@H]1O5)[C@@H]64)O2` [Compound 2, pimelea factors P2], the pIC50 was 4.86 in assay [1] (Homo sapiens); 4.76 in assay [2] (Homo sapiens); 4.89 in assay [3] (Homo sapiens, MCF7); 4.76 in assay [4]; 4.80 in assay [5] (Homo sapiens); 4.92 in the assay with A549 (lung cancer) cells (Homo sapiens, A549).

Turning to `CC(=O)O[C@H]1C(=O)[C@@]2(C)[C@H]([C@H](OC(=O)c3ccccc3)[C@]3(O)C[C@H](OC(=O)[C@H](O)[C@@H](NC(=O)c4ccccc4)c4ccccc4)C(C)=C1C3(C)C)[C@]1(OC(C)=O)CO[C@@H]1C[C@@H]2O` [Taxol, taxol, reference compound], the pIC50 in assay [1] (Homo sapiens) was more than 8.10; in assay [2] (Homo sapiens), more than 8.10; in assay [3] (Homo sapiens, MCF7), more than 8.10; in assay [4], 5.30; in assay [5] (Homo sapiens), more than 8.10; with A549 (lung cancer) cells (Homo sapiens, A549) it was more than 8.10.

On to `O=C(c1ccc2c(c1)OCO2)[C@H]1CO[C@H](c2ccc3c(c2)OCO3)[C@H]1CO` [Compound 9, (+)-epi-sesaminone], for which the pIC50 in assay [1] (Homo sapiens) is less than 4.40; in assay [2] (Homo sapiens), less than 4.40; in assay [3] (Homo sapiens, MCF7), less than 4.40; in assay [4] it was less than 4.40; in assay [5] (Homo sapiens), less than 4.40; with A549 (lung cancer) cells (Homo sapiens, A549) it was less than 4.40.
